According to patent US12427192B2, “Water soluble adjuvant and composition containing same” (Sumitomo Pharma Co., Ltd., priority 2019, dated 2025):
Each block holds one molecule with its values, some of them ahead of it.

How the values were obtained:
human TLR7 [1] = target: T1, human TLR7 (Homo sapiens, UniProt Q9NYK1); test: Human TLR7 reporter gene assay (TLR7/NF-κB/SEAPorter HEK293 cell line), Tests 1 and 21; assay type: cell-based
T1 construct: expresses full-length human TLR7 and secretory alkaline phosphatase (SEAP) reporter gene; host or cells: HEK293 (TLR7/NF-κB/SEAPorter)
T1 sequence (Q9NYK1 27-1049): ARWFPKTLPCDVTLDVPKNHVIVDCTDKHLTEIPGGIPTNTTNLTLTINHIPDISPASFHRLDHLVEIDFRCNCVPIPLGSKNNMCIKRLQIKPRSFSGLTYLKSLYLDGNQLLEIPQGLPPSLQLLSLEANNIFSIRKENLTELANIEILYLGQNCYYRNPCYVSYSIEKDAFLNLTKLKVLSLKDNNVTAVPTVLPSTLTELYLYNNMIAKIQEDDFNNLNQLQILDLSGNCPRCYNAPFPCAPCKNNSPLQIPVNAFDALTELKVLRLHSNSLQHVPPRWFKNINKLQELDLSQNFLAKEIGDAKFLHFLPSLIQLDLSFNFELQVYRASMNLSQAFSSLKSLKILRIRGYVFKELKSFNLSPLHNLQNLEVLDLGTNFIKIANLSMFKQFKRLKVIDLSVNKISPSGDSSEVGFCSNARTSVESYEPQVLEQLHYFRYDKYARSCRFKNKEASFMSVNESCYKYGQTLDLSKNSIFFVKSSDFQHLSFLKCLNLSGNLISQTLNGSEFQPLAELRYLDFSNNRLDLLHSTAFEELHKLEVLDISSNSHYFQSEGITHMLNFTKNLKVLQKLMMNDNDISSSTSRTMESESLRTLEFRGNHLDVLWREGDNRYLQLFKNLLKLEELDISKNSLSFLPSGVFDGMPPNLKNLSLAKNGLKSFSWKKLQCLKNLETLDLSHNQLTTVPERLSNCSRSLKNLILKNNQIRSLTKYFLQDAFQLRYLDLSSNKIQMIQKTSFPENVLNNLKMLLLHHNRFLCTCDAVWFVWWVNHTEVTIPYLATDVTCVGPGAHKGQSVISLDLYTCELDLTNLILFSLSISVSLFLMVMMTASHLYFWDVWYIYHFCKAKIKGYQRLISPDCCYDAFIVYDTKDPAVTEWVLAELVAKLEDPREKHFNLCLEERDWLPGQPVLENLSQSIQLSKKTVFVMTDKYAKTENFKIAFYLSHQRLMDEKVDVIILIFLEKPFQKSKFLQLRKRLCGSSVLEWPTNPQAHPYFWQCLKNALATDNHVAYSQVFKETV
Source text: Human TLR7 Reporter Gene Assay
(§1) TLR7/NF-κB/SEAPorter™ HEK293 cell line (Imgenex Corporation) is a stably co-transfected cell line which expresses full-length human TLR7 and secretory alkaline phosphatase (SEAP) reporter gene under the transcriptional regulation of an NF-κB response element. The TLR7 expression of the cell line has been already tested by flow cytometry. Transfectants with stable expression were selected using the antibiotic blasticidin and Geneticin. TLR signaling leads to the translocation of NF-κB and the activation of the promoter results in expression of the SEAP gene. TLR7-specific activation was assessed by determining the level of SEAP produced following 24-hour incubation of the cells at 37° C. with each compound prepared in Examples and Reference examples in the presence of 0.1% (v/v) dimethylsulfoxide (DMSO). The human TLR7 activity for the present compound was assessed by human TLR7 reporter gene assay, and the results are shown in Tables 3 and 4 as the compound concentration which produced half of the maximal level of SEAP induction (EC50)
According to the method of Test 1, human TLR7 reporter gene assay was done with the following samples, and the result was shown in the table below.

mouse TLR7 = target: T2, mouse TLR7 (Mus musculus, UniProt P58681); test: Mouse TLR7 reporter gene assay (HEK-Blue mTLR7 cell line), Test 2; assay type: cell-based; details: half of maximal SEAP induction, 20-24-hour incubation, 0.1% DMSO
T2 construct: expresses full-length mouse TLR7 and secretory SEAP reporter gene; host or cells: HEK-Blue mTLR7 (HEK293-derived)
T2 sequence (P58681 27-1050): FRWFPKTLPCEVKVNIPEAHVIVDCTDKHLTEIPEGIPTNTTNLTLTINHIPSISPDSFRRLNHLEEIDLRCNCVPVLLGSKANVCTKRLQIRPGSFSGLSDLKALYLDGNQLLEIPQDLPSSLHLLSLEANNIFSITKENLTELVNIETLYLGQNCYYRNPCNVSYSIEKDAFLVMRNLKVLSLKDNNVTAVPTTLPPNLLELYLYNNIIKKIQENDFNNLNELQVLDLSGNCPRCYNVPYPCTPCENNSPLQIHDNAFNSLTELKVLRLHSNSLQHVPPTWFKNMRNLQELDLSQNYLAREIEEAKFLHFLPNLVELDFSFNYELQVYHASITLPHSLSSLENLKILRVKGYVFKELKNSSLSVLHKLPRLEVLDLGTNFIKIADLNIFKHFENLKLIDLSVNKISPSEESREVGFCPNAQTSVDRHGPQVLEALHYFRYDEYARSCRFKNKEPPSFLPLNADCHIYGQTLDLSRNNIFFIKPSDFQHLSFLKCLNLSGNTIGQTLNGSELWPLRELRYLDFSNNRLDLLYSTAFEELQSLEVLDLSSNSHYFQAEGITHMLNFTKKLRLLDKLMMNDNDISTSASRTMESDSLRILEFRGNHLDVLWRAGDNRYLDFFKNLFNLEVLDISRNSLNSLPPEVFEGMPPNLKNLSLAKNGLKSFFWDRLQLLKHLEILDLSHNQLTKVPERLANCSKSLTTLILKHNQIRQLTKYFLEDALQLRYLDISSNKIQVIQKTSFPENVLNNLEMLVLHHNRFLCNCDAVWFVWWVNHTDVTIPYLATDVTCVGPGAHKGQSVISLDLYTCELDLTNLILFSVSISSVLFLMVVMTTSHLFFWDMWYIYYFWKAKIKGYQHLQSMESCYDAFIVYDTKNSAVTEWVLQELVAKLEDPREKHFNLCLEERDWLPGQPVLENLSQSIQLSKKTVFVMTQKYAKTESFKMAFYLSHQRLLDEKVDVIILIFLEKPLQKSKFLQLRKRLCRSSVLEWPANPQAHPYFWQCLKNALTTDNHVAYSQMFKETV
Source text: Test 2 Mouse TLR7 Reporter Gene Assay
HEK-Blue™ mTLR7 cell line (Invivogen) is a stably co-transfected cell line which expresses full-length mouse TLR7 and secretory SEAP reporter gene under the transcriptional regulation of an NF-κB response element. The TLR7 expression of the cell line has been already tested by RT-PCR. Transfectants with stable expression were selected using the antibiotic blasticidin and Zeocin. TLR signaling leads to the translocation of NF-κB and the activation of the promoter results in expression of the SEAP gene. TLR7-specific activation was assessed by determining the level of SEAP produced following 20-24-hour incubation of the cells at 37° C. with each compound prepared in Examples and Reference examples in the presence of 0.1% (v/v) DMSO. The mouse TLR7 activity for the present compound was assessed by mouse TLR7 reporter gene assay, and the results are shown in Tables 5 and 6 as the compound concentration which produced half of the maximal level of SEAP induction (EC50).

human TLR7 [2] = target: T1, human TLR7; test: Human TLR7 reporter gene assay (HEK-Blue hTLR7 cell line), Test 22; assay type: cell-based; details: method of Test 1
Source text: as §1
According to the method of Test 1, human TLR7 reporter gene assay was done with the following samples, and the result was shown in the table below. The cell used herein was HEK-Blue™ hTLR7 cell line (Invivogen). HEK-Blue™ hTLR7 cell line is a stably co-transfected cell line which expresses full-length human TLR7 and secretory SEAP reporter gene under the transcriptional regulation of an NF-κB response element. The TLR7 expression of the cell line has been already tested by RT-PCR. Transfectants with stable expression were selected using the antibiotic blasticidin and Zeocin.

[3] = system: HLA-A*02:01 transgenic mouse; test: Test 9: in vivo adjuvant activity, cocktail vaccine b, IFNγ ELISPOT; details: added to cocktail vaccine b; Peptide SEQ ID No. 1 or SEQ ID No. 4; 0.4 nmol per body, twice; FIG. 6 and 7
Description: Evaluation of In Vivo Adjuvant Activity in HLA-A*02:01 Transgenic Mouse
The in vivo adjuvant activity of the compounds prepared in Examples 8, 9, and 10 and the compound prepared in Reference example 12 was evaluated in the following procedure. To cocktail vaccine b comprising Compound of formula 4 prepared in Reference example 8 and Peptide SEQ ID No. 3 prepared in Reference example 3 with Montanide ISA51 VG was added the compound prepared in Example 8, 9, or 10, or the compound prepared in Reference example 12 to prepare each vaccine. The vaccine was administered to a HLA-A*02:01 transgenic mouse, and the adjuvant activity of each vaccine was evaluated by the method of testing antigen-specific CTL induction.
Specifically, Compound of formula 4 and Peptide SEQ ID No. 3 were dissolved in DMSO, and then diluted with water for injection to concentrations of Compound of formula 4 of 3 mg/mL and Peptide SEQ ID No. 3 of 2.25 mg/mL. The diluted peptide solution was mixed and emulsified with an equal volume of Montanide ISA 51 VG to prepare cocktail vaccine b. Cocktail vaccine b was injected to mice intradermally at the tail base area in an amount for administering 300 μg of Compound of formula 4 per body and 225 μg of Peptide SEQ ID No. 3 per body. Or, in the step of preparing cocktail vaccine b, the compound prepared in Example 8, 9, or 10, or the compound prepared in Reference example 12 was added to the diluted peptide solution to prepare a vaccine, and the prepared vaccine was injected to mice intradermally at the tail base area in an amount for administering 300 μg of Compound of formula 4 per body, 225 μg of Peptide SEQ ID No. 3 per body, and 0.4 nmol of the compound prepared in Example 8, 9, or 10, or the compound prepared in Reference example 12 per body. The administrations were done twice, which had one week interval. One week after the final administration, the mice were sacrificed with CO2 gas. Splenocytes were harvested from spleens removed from the mice. Like Test 4, Peptide (SEQ ID No. 1 or SEQ ID No. 4) was added to the splenocyte-containing ELISPOT plate at a final concentration of 10 μg/ml, and the plate was incubated overnight at 37° C. under an atmosphere of 5% CO2 to re-stimulate the peptide in vitro. Then, after removal of the supernatant from the wells, stained spots on the ELISPOT plate were counted.

[4] = Test 1, TLR7/NF-κB/SEAPorter HEK293 cell line, half of maximal SEAP induction, 24-hour incubation, 0.1% DMSO, read-out: EC50
[5] = Test 21, according to the method of Test 1, read-out: human EC50

EC50 (human TLR7 [1]; [4]): 8 nM | EC50 (mouse TLR7): 2 nM
Compound: CCC[C@@H](CCO)Nc1nc(N)nc(C)c1Cc1ccc(CNC)cc1OC [compound 11, (3S)-3-{[2-amino-5-({2-methoxy-4-[(methylamino)methyl]phenyl}methyl)-6-methylpyrimidin-4-yl]amino}hexan-1-ol, reference compound]

EC50 (human TLR7 [1]; [4]): 94 nM | EC50 (mouse TLR7): 21 nM
Compound: CCC[C@@H](CCO)Nc1nc(N)nc(C)c1Cc1ccc(CN(C)CCOCCOCCOCCOCCO)cc1OC [Example 2, 1-{4-[(2-amino-4-{[(3S)-1-hydroxyhexan-3-yl]amino}-6-methylpyrimidin-5-yl)methyl]-3-methoxyphenyl}-2-methyl-5,8,11,14-tetraoxa-2-azahexadecan-16-ol-trifluoroacetate]

EC50 (human TLR7 [2]): 119 nM
Compound: CCC[C@@H](CO)Nc1nc(N)nc(C)c1Cc1ccc(C(=O)OCCOCCOCCOCCOC)cc1OC [Example 6, 2,5,8,11-tetraoxatridecan-13-yl 4-[(2-amino-4-{[(2S)-1-hydroxypentan-2-yl]amino}-6-methylpyrimidin-5-yl)methyl]-3-methoxybenzoate]

EC50 (human TLR7 [1]; [5]): 3810 nM
Compound: CCCCCNc1nc(N)nc(C)c1Cc1ccc(CN(C)CCOCCOCCOCCOCCOCCOCCOCCOCCOCCOCCOCCOCCOCCOCCOCCOCCOCCOCCOCCOCCOCCOCCOCCOCCOCCOCCOCCOCCOCCOCCOCCOCCOCCOCCOCCO)cc1OC [Example 10, 1-(4-{[2-amino-4-methyl-6-(pentylamino)pyrimidin-5-yl]methyl}-3-methoxyphenyl)-2-methyl-5,8,11,14,17,20,23,26,29,32,35,38,41,44,47,50,53,56,59,62,65,68,71,74,77,80,83,86,89,92,95,98,101,104,107-pentatriacontaoxa-2-azanonahectan-109-ol]

EC50 (human TLR7 [1]; [5]): 3990 nM
Compound: CCCCCNc1nc(N)nc(C)c1Cc1ccc(CN(C)CCOCCOCCOCCOCCOCCOCCOCCOCCOCCOCCOCCOCCOCCOCCOCCOCCOCCOCCOCCOCCOCCOCCOCCO)cc1OC [Example 9, 1-(4-{[2-amino-4-methyl-6-(pentylamino)pyrimidin-5-yl]methyl}-3-methoxyphenyl)-2-methyl-5,8,11,14,17,20,23,26,29,32,35,38,41,44,47,50,53,56,59,62,65,68,71-tricosaoxa-2-azatriheptacontan-73-ol]
CTL counts responsive to the peptide compared with Reference example 12 [3]: more | CTL counts responsive to the peptide compared with adding no compound [3]: more

EC50 (human TLR7 [1]; [5]): 637 nM
Compound: CCCCCNc1nc(N)nc(C)c1Cc1cc(CN(C)CCOCCOCCOCCOCCO)ccc1OC [Example 3, 1-(3-{[2-amino-4-methyl-6-(pentylamino)pyrimidin-5-yl]methyl}-4-methoxyphenyl)-2-methyl-5,8,11,14-tetraoxa-2-azahexadecan-16-ol-trifluoroacetate]

EC50 (human TLR7 [1]; [5]): 388 nM
Compound: CCCCCNc1nc(N)nc(C)c1Cc1ccc(CN(C)CCOCCOCCOCCOCCOCCOCCOCCOCCOCCO)cc1OC [Example 8, 1-(4-{[2-amino-4-methyl-6-(pentylamino)pyrimidin-5-yl]methyl}-3-methoxyphenyl)-2-methyl-5,8,11,14,17,20,23,26,29-nonaoxa-2-azahentriacontan-31-ol]
CTL counts responsive to the peptide compared with Reference example 12 [3]: more | CTL counts responsive to the peptide compared with adding no compound [3]: more
